Holding throughout (format): in vivo
Assay [1] relates to A375 human melanoma xenograft. Put plainly: subcutaneous A375 human melanoma xenograft model, tumor size. The note with it: BALB/c nude mice, s.c. A375, DX-2400 20 mg/kg i.v. Q3D X6; for tumor volume: darcabazine 150 mg/kg i.p. Day 1, 4/wk x 3, compared to untreated mice (FIG. 1); for tumor growth rate: darcabazine 150 mg/kg i.p., compared to untreated mice. How it is done:
The in vivo therapeutic efficacy of DX-2400 as a single agent or in combination with darcabazine was determined using a subcutaneous A375 human melanoma xenograft model.
A375 tumor cells were maintained in vitro as a monolayer culture in DMEM medium, supplemented with 10% heat inactivated fetal bovine serum, 100 U/ml penicillin and 100 μg/ml streptomycin, and L-glutamine (2 mM) at 37° C. in an atmosphere of 5% CO2 in air. The tumor cells were routinely subcultured twice weekly by trypsin-EDTA treatment. The cells growing in an exponential growth phase were harvested and counted for tumor inoculation.
55 BALB/c nude, female, 6-8 weeks, weighing approximately 18-22 were purchased from Shanghai Laboratory Animal Center SLAC (Shanghai, China) for use in the study (40 mice+˜40% spare). Each mouse was inoculated subcutaneously at the right flank with A375 tumor cells (5×10^6) in 0.1 ml of PBS for tumor development. The treatments were started when the mean tumor size reached approximately 150˜200 mm^3. Each group consisted of 10 mice.
(§1) The major endpoint is to see if the tumor growth can be delayed or tumor bearing mice can be cured. Tumor sizes were measured twice weekly in two dimensions using a caliper, and the volume was expressed in mm^3 using the formula: V=0.5 a×b^2 where a and b are the long and short diameters of the tumor, respectively. The tumor sizes were then used for the calculations of both T-C and T/C values. T-C is calculated with T as the time (in days) required for the mean tumor size of the treatment group to reach a predetermined size (e.g., 1000 mm^3), and C is the time (in days) for the mean tumor size of the control group to reach the same size. The T/C value (in percent) is an indication of antitumor effectiveness, T and C are the mean volume of the treated and control groups, respectively, on a given day.

Assay [2] relates to Panc-1 human pancreas cancer xenograft. Put plainly: subcutaneous Panc-1 human pancreas cancer xenograft model, tumor size. The note with it: BALB/c nude mice, s.c. Panc-1; DX-2400 20 mg/kg i.v. Q3D X6; gemcitabine 50 mg/kg i.p. Q3D X4; compared to untreated mice (FIG. 4A). How it is done:
The in vivo therapeutic efficacy of DX-2400 as a single agent or in combination with gemcitabine was evaluated in the treatment of a subcutaneous Panc-1 human pancreas cancer xenograft model.
Panc-1 tumor cells were maintained in vitro as a monolayer culture in DMEM medium, supplemented with 10% heat inactivated fetal bovine serum, 100 U/ml penicillin and 100 μg/ml streptomycin, and L-glutamine (2 mM) at 37° C. in an atmosphere of 5% CO2 in air. The tumor cells will be routinely subcultured twice weekly by trypsin-EDTA treatment. The cells growing in an exponential growth phase will be harvested and counted for tumor inoculation.
A total of 56 (40 plus 40% spare) BALB/c nude, female, 6-8 weeks, weighing approximately 18-22 g were purchased from Shanghai Laboratory Animal Center SLAC (Shanghai, China) for use in the study. […]
(§2) The major endpoint is to see if the tumor growth can be delayed or tumor bearing mice can be cured. Tumor sizes were measured twice weekly in two dimensions using a caliper, and the volume was expressed in mm^3 using the formula: V=0.5 a×b^2 where a and b are the long and short diameters of the tumor, respectively. […] T-C is calculated with T as the time (in days) required for the mean tumor size of the treatment group to reach a predetermined size (e.g., 1000 mm^3), and C is the time (in days) for the mean tumor size of the control group to reach the same size. […]

In assay [3] the test system is primary human pancreatic cancer PAM527 xenograft. Put plainly: subcutaneous primary human pancreatic cancer PAM527 xenograft model in nude mice, tumor size. As to conditions: BALB/c nude mice, s.c. PAM527 tumor fragment; DX-2400 20 mg/kg i.v. Q3d x 6; gemcitabine 60 mg/kg i.p. Q4d x 4; compared to untreated mice (FIG. 3A). As to the method:
The in vivo anti-tumor activity of DX-2400 as a single agent or in combination with gemcitabine was evaluated in the treatment of subcutaneous primary human pancreatic cancer using a PAM527 xenograft model in nude mice.
75 BALB/c nude mice, female, 6-8 weeks, weighing approximately 18-24 g were purchased from SLAC, Shanghai, P. R. China (40 mice+˜90% spare). Tumor fragments from seed mice inoculated with selected primary human pancreatic cancer tissues (PAM527) were harvested and used for inoculation into BALB/c nude mice. Each mouse was inoculated subcutaneously at the right flank with one tumor fragment (2-3 mm in diameter) for tumor development. The treatments were started when the mean tumor size reached approximately 150 mm^3. Each group consisted of 10 mice.
as §2
For orientation: In xenograft studies the graft and the host belong to different species.

The test system of assay [4] is SK-MEL-5 human melanoma xenograft. The assay can be described thus: subcutaneous SK-MEL-5 human melanoma xenograft model, tumor size. The note with it: BALB/c nude mice, s.c. SK-MEL-5, DX-2400 20 mg/kg i.v. Q3D X6, paclitaxel 8 mg/kg i.p. Q4D X6; for tumor growth rate: compared to untreated mice; for tumor volume: compared to untreated mice (FIG. 2). How it is done:
The in vivo therapeutic efficacy of DX-2400 as a single agent or in combination with Paclitaxel in the treatment of human melanoma was evaluated using a subcutaneous SK-MEL-5 human melanoma xenograft model.
SK-MEL-5 human melanoma cells were grown in EMEM medium, supplemented with 10% heat inactivated fetal bovine serum, 100 U/ml penicillin and 100 μg/ml streptomycin at 37° C. in an atmosphere of 5% CO2 in air. The tumor cells were routinely subcultured twice weekly. Cells were harvested during the logarithmic growth period and resuspended in physical PBS with proper cell concentration and kept on ice for tumor induction.
55 BALB/c nude, female, 6-8 weeks, weighing approximately 18-22 g (40 mice+˜40% spare) were used for the study. Animals were purchased from Shanghai Laboratory Animal Center SLAC (Shanghai, China, Shanghai). Each mouse was inoculated subcutaneously at the right flank with SK-MEL-5 tumor cells (5×10^6) in 0.1 ml of PBS for tumor development. The treatments were started when the mean tumor size reached approximately 150˜200 mm^3. Each group consisted of 10 mice.
as §1

As to `CN(C)/N=N/c1[nH]cnc1C(N)=O` [darcabazine, dacarbazine], in assay [1], the tumor volume result was “reduced tumor volume” and the tumor growth rate entry is “caused a reduction in tumor growth rate”.

Consider `Nc1ccn([C@@H]2O[C@H](CO)[C@@H](O)C2(F)F)c(=O)n1` [gemcitabine], for which the mean tumor size entry in assay [2] and in assay [3] was “reduced the tumor size” each time.

Take `CC(=O)O[C@H]1C(=O)[C@@]2(C)[C@H]([C@H](OC(=O)c3ccccc3)[C@]3(O)C[C@H](OC(=O)[C@H](O)[C@@H](NC(=O)c4ccccc4)c4ccccc4)C(C)=C1C3(C)C)[C@]1(OC(C)=O)CO[C@@H]1C[C@@H]2O` [paclitaxel]: in assay [4], the tumor growth rate entry is on record as “caused a reduction in tumor growth rate” and the tumor volume result was “reduced tumor volume”.

B1: DX-2400: human anti-MMP-14 antibody, light and heavy chains of M0038-F01; VH SEQ ID NO: 51, VL SEQ ID NO: 52 (antibody, listed as Homo sapiens, V domains shown)
VH: EVQLLESGGGLVQPGGSLRLSCAASGFTFSLYSMNWVRQAPGKGLEWVSSIYSSGGSTLYADSVKGRFTISRDNSKNTLYLQMNSLRAEDTAVYYCARGRAFDIWGQGTMVTVSS
VL: DIQMTQSPSSLSASVGDRVTITCRASQSVGTYLNWYQQKPGKAPKLLIYATSNLRSGVPSRFSGSGSGTDFTLTISSLQPEDFATYYCQQSYSIPRFTFGPGTKVDIK
In the case of B1, the mean tumor size result in assay [2] and in assay [3] was “reduced the mean tumor size” in each case. In addition, the tumor volume entry in assay [1] and in assay [4] was “reduced tumor volume” each time. Moreover, the tumor growth rate entry in assay [1] and in assay [4] was “caused a reduction in the tumor growth rate” in each case.

The values are drawn from patent US10314909B2, “Combination therapy comprising an MMP-14 binding protein” (DYAX CORP., priority 2011, dated 2019).
